Laboratory results from patent US20080293774A1, “Treatment of the Symptoms of Bladder Irritation” (UROGENE, priority 2005, published 2008).

Experiments:
[1] = system: rhythmic reflex contractions of the bladder; experiment: complete bladder-outlet obstruction (isovolumetric) model of overactive bladder in the rat; type: in vivo, female Wistar rats; conditions: i.v.; for maximum intravesical pressure: all doses tested (HP183 0.3, 1, 3 mg/kg; HP184 1, 3, 10 mg/kg; HP749 1.6, 3.5, 10.5 mg/kg)
Text: The compounds of Table 1 have been evaluated in a conventional animal model of overactive bladder: the complete bladder-outlet obstruction model in the rat, referred to as “isovolumetric” model (K. Sugaya, Y. Ogawa, O, Nishizawa, W C De Groat, Decrease in intravesical saline volume during isovolumetric cystometry in the rat, Neurourol. Urodyn, 1997, 16:125-132). In this model, rhythmic reflex contractions of the bladder are induced in female Wistar rats in which the urethra has been ligatured.
The rats are anaesthetized and implanted with a jugular catheter for the intravenous administration of the compounds. A transurethral catheter is introduced into the bladder, through the bladder dome, so as to allow the infusion of a saline solution and measurement of the intravesical pressure. The urethra is ligatured in order to close off the bladder.
The bladder is infused (50 μl/min) via the transurethral catheter with a saline solution until uninhibited rhythmic contractions appear. The infusion is then stopped and the intravesical pressure is measured for a period of 60 min preceding the injection of the study compounds. The compounds to be studied are then injected via the jugular catheter, and the intravesical pressure is recorded for a period of 60 min. The intravenous administration of the compounds during this test limits the metabolization of HP749 and of HP184 to HP748 and HP183, respectively. The animals are sacrificed at the end of the experiment by means of an overdose of pentobarbital. A scheme of the experiment is given below.
The data from the experiment are analysed with the ELPHY software (a free version of which is accessible at the following address: http://www.unic.cnrs-gif.fr/software/software.htm). The parameters analysed are as follows: • Maximum intravesical pressure (MP, expressed in mmHg) • Threshold pressure (ThP, expressed in mmHg) compared with the carrier (FIG. 2B).

bladder contractions = conditions: rats suffering from bladder irritation; cited from earlier work
[2] = human; cited from earlier work
[3] = all doses tested (HP183 0.3, 1, 3 mg/kg; HP184 1, 3, 10 mg/kg), 60 min recording, compared with the carrier
[4] = 60 min recording, compared with the carrier

| SMILES | frequency of bladder contractions ([1]; from the first dose of 0.3 mg/kg, dose-dependent) | frequency of rhythmic isovolumetric contractions [1, 3] | maximum intravesical pressure [1, 4] | frequency of bladder contractions related to bladder irritation (bladder contractions) | metabolite formed by biotransformation [2] | frequency of rhythmic isovolumetric contractions ([1]; highest dose (10.5 mg/kg)) | frequency of rhythmic isovolumetric contractions ([1]; lowest dose (HP749 1.6 mg/kg)) |
| --- | --- | --- | --- | --- | --- | --- | --- |
| c1ccc2c(c1)ccn2Nc1ccncc1 [HP748, N-(4-pyridinyl)-1H-indol-1-amine] | considerably and statistically significantly decreased |  |  |  |  |  |  |
| Cc1cn(Nc2ccncc2F)c2ccccc12 [HP183, N-(3-fluoro-4-pyridinyl)-3-methyl-1H-indol-1-amine] |  | no statistically significant effect | no statistically significant effect |  |  |  |  |
| CCCN(c1ccncc1F)n1cc(C)c2ccccc21 [HP184, N-(3-fluoro-4-pyridinyl)-N-propyl-3-methyl-1H-indol-1-amine] |  | no statistically significant effect | no statistically significant effect | slightly decreasing |  |  |  |
| CCCN(c1ccncc1)n1ccc2ccccc21 [HP749, N-propyl-N-(4-pyridinyl)-1H-indol-1-amine] |  |  | did not demonstrate any effect |  | metabolized in human to compound (I) | increasing | decreasing |
